Data as given in ChEMBL document CHEMBL3885861, “Open TG-GATES”.

Species: Rattus norvegicus
Test: Open TG-GATES - Regimen: Single
Assay type: toxicity, organism-based, Sprague-Dawley
Design: regimen Single, gender Male, age 6 weeks
Settings: in vivo, po, 0 mg/kg, route gavage, dose level Control; for APTT / Bas / Eos / Fbg / Hb / Ht / Lym / MCH / MCHC / MCV / Mono / Neu / PT / Plat / RBC / Ret / WBC: tissue Blood; for KIDNEY_L / KIDNEY_R / KIDNEY_TOTAL: tissue Kidney; for LIVER: tissue Liver; for A/G / ALP / ALT / AST / BUN / CRE / Ca / Cl / DBIL / GLC / IP / K / LDH / Na / PL / RALB / TBIL / TC / TG / TP / gamma-GTP: tissue Plasma

Question: Which results are given for `CN(C)CCC=C1c2ccccc2CCc2ccccc21` [AMITRIPTYLINE]?
Answer: TERMINAL_BW (3 h): 194 g; APTT (3 h): 16.6 s; Bas (3 h): 0%; Eos (3 h): 0.8%; Fbg (3 h): 235.6 mg/dL; Hb (3 h): 12.8 g/dL; Ht (3 h): 39.8%; Lym (3 h): 77.6%; MCH (3 h): 20.9 pg; MCHC (3 h): 32.3%; MCV (3 h): 64.6 fL; Mono (3 h): 3.4%; Neu (3 h): 17.2%; PT (3 h): 16.2 s; Plat (3 h): 103.9 x10_4/uL; RBC (3 h): 616.6 x10_4/ul; Ret (3 h): 9.3%; WBC (3 h): 90.6 x10_2/uL; KIDNEY_L (3 h): 0.9 g; KIDNEY_R (3 h): 0.9 g; KIDNEY_TOTAL (3 h): 1.7 g; LIVER (3 h): 8.2 g; A/G (3 h): 0.8; ALP (3 h): 1452 IU/L; ALT (3 h): 48.2 IU/L; AST (3 h): 80.8 IU/L; BUN (3 h): 8.8 mg/dL; CRE (3 h): 0.2 mg/dL; Ca (3 h): 10.7 mg/dL; Cl (3 h): 106 meq/L; DBIL (3 h): 0.01 mg/dL; GLC (3 h): 183.6 mg/dL; IP (3 h): 9.2 mg/dL; K (3 h): 4.1 meq/L; LDH (3 h): 66.2 IU/L; Na (3 h): 143 meq/L; PL (3 h): 124.4 mg/dL; RALB (3 h): 2.4 g/dL; TBIL (3 h): 0.062 mg/dL; TC (3 h): 67.6 mg/dL; TG (3 h): 44.4 mg/dL; TP (3 h): 5.3 g/dL; gamma-GTP (3 h): 1 IU/L; TERMINAL_BW (6 h): 193.8 g; APTT (6 h): 17 s; Bas (6 h): 0%; Eos (6 h): 0.8%; Fbg (6 h): 256.2 mg/dL; Hb (6 h): 12.7 g/dL; Ht (6 h): 38.9%; Lym (6 h): 72.6%; MCH (6 h): 20.6 pg; MCHC (6 h): 32.6%; MCV (6 h): 63.3 fL; Mono (6 h): 2.4%; Neu (6 h): 23.2%; PT (6 h): 15.8 s; Plat (6 h): 119.8 x10_4/uL; RBC (6 h): 615.8 x10_4/ul; Ret (6 h): 8.9%; WBC (6 h): 66 x10_2/uL; KIDNEY_L (6 h): 0.9 g; KIDNEY_R (6 h): 0.8 g; KIDNEY_TOTAL (6 h): 1.7 g; LIVER (6 h): 8.2 g; A/G (6 h): 0.9; ALP (6 h): 1334.2 IU/L; ALT (6 h): 44.6 IU/L; AST (6 h): 74.4 IU/L; BUN (6 h): 8.6 mg/dL; CRE (6 h): 0.1 mg/dL; Ca (6 h): 10.7 mg/dL; Cl (6 h): 105.8 meq/L; DBIL (6 h): 0.008 mg/dL; GLC (6 h): 173.6 mg/dL; IP (6 h): 9.8 mg/dL; K (6 h): 4.2 meq/L; LDH (6 h): 62 IU/L; Na (6 h): 142.6 meq/L; PL (6 h): 142.6 mg/dL; RALB (6 h): 2.5 g/dL; TBIL (6 h): 0.06 mg/dL; TC (6 h): 78.4 mg/dL; TG (6 h): 67 mg/dL; TP (6 h): 5.4 g/dL; gamma-GTP (6 h): 1 IU/L; TERMINAL_BW (9 h): 191.9 g; APTT (9 h): 16 s; Bas (9 h): 0%; Eos (9 h): 1%; Fbg (9 h): 295.6 mg/dL; Hb (9 h): 12.8 g/dL; Ht (9 h): 39.1%; Lym (9 h): 77.6%; MCH (9 h): 20.9 pg; MCHC (9 h): 32.8%; MCV (9 h): 63.9 fL; Mono (9 h): 2.4%; Neu (9 h): 18.6%; PT (9 h): 15.2 s; Plat (9 h): 119.1 x10_4/uL; RBC (9 h): 611.8 x10_4/ul; Ret (9 h): 8.5%; WBC (9 h): 71.6 x10_2/uL; KIDNEY_L (9 h): 0.9 g; KIDNEY_R (9 h): 0.9 g; KIDNEY_TOTAL (9 h): 1.7 g; LIVER (9 h): 7.8 g; A/G (9 h): 0.8; ALP (9 h): 1549.8 IU/L; ALT (9 h): 40.8 IU/L; AST (9 h): 71.4 IU/L; BUN (9 h): 8.8 mg/dL; CRE (9 h): 0.2 mg/dL; Ca (9 h): 10.7 mg/dL; Cl (9 h): 106.6 meq/L; DBIL (9 h): 0.01 mg/dL; GLC (9 h): 174.8 mg/dL; IP (9 h): 10 mg/dL; K (9 h): 4 meq/L; LDH (9 h): 60.4 IU/L; Na (9 h): 142.6 meq/L; PL (9 h): 140.4 mg/dL; RALB (9 h): 2.5 g/dL; TBIL (9 h): 0.06 mg/dL; TC (9 h): 79.4 mg/dL; TG (9 h): 44 mg/dL; TP (9 h): 5.4 g/dL; gamma-GTP (9 h): 1 IU/L; TERMINAL_BW (24 h): 208.1 g; APTT (24 h): 16.3 s; Bas (24 h): 0.4%; Eos (24 h): 1%; Fbg (24 h): 266 mg/dL; Hb (24 h): 12.5 g/dL; Ht (24 h): 38.5%; Lym (24 h): 77.8%; MCH (24 h): 21.2 pg; MCHC (24 h): 32.4%; MCV (24 h): 65.5 fL; Mono (24 h): 3.2%; Neu (24 h): 17%; PT (24 h): 16.3 s; Plat (24 h): 110 x10_4/uL; RBC (24 h): 589.4 x10_4/ul; Ret (24 h): 9.5%; WBC (24 h): 101.9 x10_2/uL; KIDNEY_L (24 h): 0.9 g; KIDNEY_R (24 h): 0.9 g; KIDNEY_TOTAL (24 h): 1.8 g; LIVER (24 h): 9.6 g; A/G (24 h): 0.8; ALP (24 h): 1573.8 IU/L; ALT (24 h): 48.2 IU/L; AST (24 h): 77.4 IU/L; BUN (24 h): 15.4 mg/dL; CRE (24 h): 0.2 mg/dL; Ca (24 h): 11.1 mg/dL; Cl (24 h): 105 meq/L; DBIL (24 h): 0.016 mg/dL; GLC (24 h): 186.4 mg/dL; IP (24 h): 8.2 mg/dL; K (24 h): 4 meq/L; LDH (24 h): 90.2 IU/L; Na (24 h): 143.2 meq/L; PL (24 h): 153.8 mg/dL; RALB (24 h): 2.6 g/dL; TBIL (24 h): 0.054 mg/dL; TC (24 h): 79.4 mg/dL; TG (24 h): 97.4 mg/dL; TP (24 h): 5.6 g/dL; gamma-GTP (24 h): 0.6 IU/L
